pKi: −log10 of the molar value.

The assay concerns the target T1, Itk (Homo sapiens, UniProt Q08881).
T1 sequence (Q08881 1-620): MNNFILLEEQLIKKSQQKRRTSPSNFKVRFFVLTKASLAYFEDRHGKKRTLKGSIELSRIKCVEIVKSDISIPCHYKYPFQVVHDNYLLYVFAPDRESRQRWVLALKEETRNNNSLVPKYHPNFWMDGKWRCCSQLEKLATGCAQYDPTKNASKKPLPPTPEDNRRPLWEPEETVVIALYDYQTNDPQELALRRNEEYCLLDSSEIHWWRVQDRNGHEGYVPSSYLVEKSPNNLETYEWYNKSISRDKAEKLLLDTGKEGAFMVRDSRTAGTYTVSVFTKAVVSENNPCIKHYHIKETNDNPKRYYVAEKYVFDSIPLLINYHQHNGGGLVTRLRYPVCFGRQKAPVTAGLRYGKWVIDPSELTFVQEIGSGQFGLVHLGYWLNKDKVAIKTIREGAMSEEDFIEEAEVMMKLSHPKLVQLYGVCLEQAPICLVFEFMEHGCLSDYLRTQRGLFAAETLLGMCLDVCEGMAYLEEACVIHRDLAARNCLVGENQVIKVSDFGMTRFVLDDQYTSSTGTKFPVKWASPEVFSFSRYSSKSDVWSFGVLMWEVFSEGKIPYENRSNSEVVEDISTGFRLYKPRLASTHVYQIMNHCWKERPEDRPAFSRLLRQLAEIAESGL
The assay is described as follows: Itk inhibition assay: spectrophotometric coupled enzyme (Method C). In kind it is biochemical. Particulars: 100 μM ATP, read-out: Ki in the standard coupled enzyme assay (Method C). How it is done:
The compounds of the present invention were evaluated as inhibitors of human Itk kinase using either a radioactivity-based, spectrophotometric or alphascreen assay.
Compounds were screened for their ability to inhibit Itk using a standard coupled enzyme assay (Fox et al., Protein Sci., (1998) 7, 2249).
Assays were carried out in a mixture of 20 mM MOPS (pH 7.0), 10 mM MgCl2, 0.1% BSA, 1 mM DTT, 2.5 mM phosphoenolpyruvate, 300 μM NADH, 30 μg/ml pyruvate kinase and 10 μg/ml lactate dehydrogenase. Final substrate concentrations in the assay were 100 μM ATP (Sigma Chemicals) and 3 μM peptide (Biotinylated SAM68 Δ332-443). Assays were carried out at 25° C. and in the presence of 10 nM Itk.
An assay stock buffer solution was prepared containing all of the reagents listed above, with the exception of ATP and the test compound of interest. 60 μl of the stock solution was placed in a 96 well plate followed by addition of 2 μl of DMSO stock containing serial dilutions of the test compound (typically starting from a final concentration of 15 μM). The plate was preincubated for 10 minutes at 25° C. and the reaction initiated by addition of 5 μl of ATP. Initial reaction rates were determined with a Molecular Devices SpectraMax Plus plate reader over a 10 minute time course. IC50 and Ki data were calculated from non-linear regression analysis using the Prism software package (GraphPad Prism version 3.0cx for Macintosh, GraphPad Software, San Diego Calif., USA).
As for `CC(=O)N1CCC(CNC(=O)c2cc3c(ccc4cnc(Nc5cccc(C(C)(C)C)c5)nc43)s2)C1` (centres unmarked) [Compound V-119], the pKi was more than 6.00.
Consider `O=C(c1ccc(Nc2ncc3ccc4sc(C(=O)N5CCNCC5)cc4c3n2)cc1)N1CCOCC1` [Compound V-120], for which the pKi is more than 6.00.
For `CN(C)C(=O)c1ccc(Nc2ncc3ccc4sc(C(=O)N5CCNCC5)cc4c3n2)cc1` [Compound V-121] the value was more than 6.00; for `CN1CCN(C(=O)c2ccc(Nc3ncc4ccc5sc(C(=O)N6CCNCC6)cc5c4n3)cc2)CC1` [Compound V-122], more than 6.00.
For `O=C(c1cc2c(ccc3cnc(NCCc4ccccc4)nc32)s1)N1CCNCC1` [Compound V-125] the value was more than 6.00; for `O=C(c1cc2c(ccc3cnc(N[C@H]4C[C@@H]4c4ccccc4)nc32)s1)N1CCNCC1` [Compound V-127], more than 6.00.
For `CS(=O)(=O)c1cccc(Nc2ncc3ccc4sc(C(=O)NCc5ccccc5)cc4c3n2)c1` [Compound V-129] the value was more than 6.00; for `CS(=O)(=O)c1cccc(Nc2ncc3ccc4sc(C(=O)N5CCCC5)cc4c3n2)c1` [Compound V-130], more than 6.00; for `CS(=O)(=O)c1cccc(Nc2ncc3ccc4sc(C(=O)N5CCNC(=O)C5)cc4c3n2)c1` [Compound V-131], more than 6.00.
Turning to `CS(=O)(=O)c1cccc(Nc2ncc3ccc4sc(C(=O)NC5(CO)CCCC5)cc4c3n2)c1` [Compound V-132], the pKi is more than 6.00.
For `CS(=O)(=O)c1cccc(Nc2ncc3ccc4sc(C(=O)NCCO)cc4c3n2)c1` [Compound V-133] the value was more than 6.00; for `COCCNC(=O)c1cc2c(ccc3cnc(Nc4cccc(S(C)(=O)=O)c4)nc32)s1` [Compound V-134], more than 6.00; for `CC(=O)NCCNC(=O)c1cc2c(ccc3cnc(Nc4cccc(S(C)(=O)=O)c4)nc32)s1` [Compound V-135], more than 6.00.
For `CS(=O)(=O)c1cccc(Nc2ncc3ccc4sc(C(=O)N5CCCNCC5)cc4c3n2)c1` [Compound V-136] the value was more than 6.00; for `CC1CN(C(=O)c2cc3c(ccc4cnc(Nc5cccc(S(C)(=O)=O)c5)nc43)s2)CC(C)N1` (centres unmarked) [Compound V-137], more than 6.00; for `CC(=O)N1CCCN(C(=O)c2cc3c(ccc4cnc(Nc5cccc(S(C)(=O)=O)c5)nc43)s2)CC1` [Compound V-138], more than 6.00.
For `COCCN(C)C(=O)c1cc2c(ccc3cnc(Nc4cccc(S(C)(=O)=O)c4)nc32)s1` [Compound V-139], the negative-log Ki (pKi) was more than 6.00.
Next, `CC(C)N(C)C(=O)c1cc2c(ccc3cnc(Nc4cccc(S(C)(=O)=O)c4)nc32)s1` [Compound V-140]: more than 6.00; `CN(C)C(=O)c1cc2c(ccc3cnc(Nc4cccc(S(C)(=O)=O)c4)nc32)s1` [Compound V-141]: more than 6.00; `CS(=O)(=O)c1cccc(Nc2ncc3ccc4sc(C(=O)N5CCC[C@H]5CO)cc4c3n2)c1` [Compound V-142]: more than 6.00.
For the compound `C[C@@H]1CN(C(=O)c2cc3c(ccc4cnc(Nc5cccc(S(C)(=O)=O)c5)nc43)s2)C[C@H](C)O1` [Compound V-143], the pKi was more than 6.00.
For `CS(=O)(=O)c1cccc(Nc2ncc3ccc4sc(C(=O)N5CCC(C(N)=O)CC5)cc4c3n2)c1` [Compound V-144] the value was more than 6.00.
For `CS(=O)(=O)c1cccc(Nc2ncc3ccc4sc(C(=O)NCCN5CCNC5=O)cc4c3n2)c1` [Compound V-145] the value was more than 6.00; for `CS(=O)(=O)c1cccc(Nc2ncc3ccc4sc(C(=O)NCC5CCNC5)cc4c3n2)c1` (centres unmarked) [Compound V-146], more than 6.00.
In the case of `CC(=O)N1CCN(C(=O)c2cc3c(ccc4cnc(Nc5cccc(S(C)(=O)=O)c5)nc43)s2)CC1` [Compound V-147], the pKi was more than 6.00.
Next, `CC(=O)NC1CCN(C(=O)c2cc3c(ccc4cnc(Nc5cccc(S(C)(=O)=O)c5)nc43)s2)C1` (centres unmarked) [Compound V-148]: more than 6.00.
For `CS(=O)(=O)c1cccc(Nc2ncc3ccc4sc(C(=O)NCC5CCNCC5)cc4c3n2)c1` [Compound V-149], the pKi is more than 6.00.
Next, `CS(=O)(=O)c1cccc(Nc2ncc3ccc4sc(C(=O)NC5CCOCC5)cc4c3n2)c1` [Compound V-150]: more than 6.00; `CS(=O)(=O)c1cccc(Nc2ncc3ccc4sc(C(=O)NC5CCC(O)CC5)cc4c3n2)c1` (centres unmarked) [Compound V-151]: more than 6.00; `CN(CCO)C(=O)c1cc2c(ccc3cnc(Nc4cccc(S(C)(=O)=O)c4)nc32)s1` [Compound V-152]: more than 6.00.
Next, `COC[C@H](C)NC(=O)c1cc2c(ccc3cnc(Nc4cccc(S(C)(=O)=O)c4)nc32)s1` [Compound V-153]: more than 6.00; `CS(=O)(=O)c1cccc(Nc2ncc3ccc4sc(C(=O)N5CCC(O)CC5)cc4c3n2)c1` [Compound V-154]: more than 6.00; `COC[C@H]1CCCN1C(=O)c1cc2c(ccc3cnc(Nc4cccc(S(C)(=O)=O)c4)nc32)s1` [Compound V-155]: more than 6.00.
With `CS(=O)(=O)c1cccc(Nc2ncc3ccc4sc(C(=O)N5CCC(O)C5)cc4c3n2)c1` (centres unmarked) [Compound V-156], the pKi was more than 6.00.
Next, `CCN(CCN(C)C)C(=O)c1cc2c(ccc3cnc(Nc4cccc(S(C)(=O)=O)c4)nc32)s1` [Compound V-157]: more than 6.00; `O=C(c1cc2c(ccc3cnc(NCCc4ccc(Cl)cc4)nc32)s1)N1CCNCC1` [Compound V-159]: more than 6.00.
Next, `O=C(c1cc2c(ccc3cnc(NCCc4ccccc4Cl)nc32)s1)N1CCNCC1` [Compound V-162]: more than 6.00; `Nc1ccc(CCNc2ncc3ccc4sc(C(=O)N5CCNCC5)cc4c3n2)cc1` [Compound V-165]: more than 6.00.
With `CC(=O)N1CCc2ccc(Nc3ncc4ccc5sc(C(=O)N6CCNCC6)cc5c4n3)cc21` [Compound V-166], the pKi is more than 6.00.
For `O=C(c1cc2c(ccc3cnc(NCCc4cccc(Cl)c4)nc32)s1)N1CCNCC1` [Compound V-167] the value was more than 6.00; for `O=C(c1cc2c(ccc3cnc(NCCCc4ccccc4)nc32)s1)N1CCNCC1` [Compound V-170], more than 6.00; for `O=C(c1cc2c(ccc3cnc(NC4Cc5ccccc5C4)nc32)s1)N1CCNCC1` [Compound V-172], more than 6.00.
For `O=C(c1cc2c(ccc3cnc(NCCc4cccnc4)nc32)s1)N1CCNCC1` [Compound V-173] the value was more than 6.00; for `COc1ccc(CCNc2ncc3ccc4sc(C(=O)N5CCNCC5)cc4c3n2)cc1` [Compound V-175], more than 6.00; for `NC1CCN(C(=O)c2nc3ccc4cnc(Nc5cccc(S(N)(=O)=O)c5)nc4c3s2)CC1` [Compound V-176], more than 6.00.
Next, `NS(=O)(=O)c1cccc(Nc2ncc3ccc4nc(C(=O)N5CCNCC5)sc4c3n2)c1` [Compound V-177]: more than 6.00.
In the case of `O=C(c1cc2c(ccc3cnc(NCCc4c[nH]cn4)nc32)s1)N1CCNCC1` [Compound V-178], the pKi is more than 6.00.
Regarding `O=C(c1cc2c(ccc3cnc(NCCc4ccccn4)nc32)s1)N1CCNCC1` [Compound V-179], the pKi was more than 6.00.
Next, `O=C(c1cc2c(ccc3cnc(NCCc4ccc(F)cc4)nc32)s1)N1CCNCC1` [Compound V-180]: more than 6.00; `O=C(c1cc2c(ccc3cnc(NCCc4ccc(O)cc4)nc32)s1)N1CCNCC1` [Compound V-182]: more than 6.00.

The values above are taken from US7700609B2, “Compositions useful as inhibitors of protein kinases” (Vertex Pharmaceuticals Incorporated, priority 2003, dated 2010).
